Source: patent US10738054B2, “Synergistic compositions comprising (R)-dimiracetam (1) and (S)-dimiracetam (2) in a non-racemic ratio” (Metys Pharmaceuticals AG, priority 2017, dated 2020)
Where “and” joins values, the source holds several entries; their conditions need not be identical. Equal values may be shown once. Blank lines part the entries; values can stand above or below the compound they belong to.

How the values were obtained:
[1] = Rat plasma concentration-time profiles after oral administration; format: in vivo; conditions: for rat plasma concentration-time profiles after oral administration: 75 mg/kg p.o. enantiomer vs 150 mg/kg p.o. racemate (FIG. 4A, 4B); for interconversion of enantiomers in vivo: rat, oral administration
Method: FIG. 4A: Comparison of the plasma concentration-time profiles of the (R)-enantiomer after oral administration of (R)-dimiracetam (75 mg/kg) and after oral administration of racemic dimiracetam (150 mg/kg)
FIG. 4B: Comparison of the plasma concentration-time profiles of the (S)-enantiomer after oral administration of (S)-dimiracetam (2) (75 mg/kg) and after oral administration of racemic dimiracetam (150 mg/kg).

[2] = test system: rats pre-treated with 2′,3′-dideoxycytidine (ddC, zalcitabine); conditions: cited from earlier work
[3] = test system: NMDA plus glycine-evoked [3H]-D-aspartic acid release from rat spinal synaptosomes; assay: Inhibition of NMDA+glycine-induced glutamate ([3H]-D-Asp) release from rat spinal synaptosomes (Example 2); format: biochemical; conditions: for IC50: rat spinal synaptosomes, 10 μM NMDA plus 1 μM glycine, read-out: estimated IC50 for inhibition of NMDA plus glycine-evoked [3H]-D-aspartic acid release; for Percent inhibition of NMDA + glycine-induced glutamate release from rat spinal synaptosomes: mean ± S.E.M. of 3 to 6 experiments
Method: Rat spinal synaptosomes, free from glial contaminants, were prepared according to the method of Paluzzi S. et al., 2007, a modification of the method of Nakamura et al., 1993, as follows.
Sprague-Dawley rats aged between 90 to 130 days were used. Animals were housed at constant temperature (22±1° C.) and relative humidity (50%) under a regular light-dark schedule (lights 7.00 am-7.00 pm). Food and water were freely available.
Rats were sacrificed by decapitation and the whole spinal cord was rapidly removed and maintained at 4° C. Rat spinal cord was homogenized (90 rpm; 24 up-down strokes in 2 min) in 10 volumes (1 g tissue in 10 ml) of ice cold 0.32 M sucrose, buffered at pH 7.4 using a glass-teflon tissue grinder (clearance 0.25 mm). The homogenate was centrifuged (5 min, 1000 g at 4° C.) to remove nuclei and debris, and the supernatant was gently stratified at 0-4° C. on a discontinuous Percoll® (Sigma Aldrich, St Louis, Mo., USA) gradient (2, 6, 10 and 20% v/v in Tris-buffered sucrose) and centrifuged at 33,500 g for 5 min. The layer between 10 and 20% Percoll (i.e. the synaptosomal fraction) was collected and washed by centrifugation in physiological medium having the following composition (mM): NaCl, 140; KCl, 3; MgSO4 1.2; NaH2PO4, 1.2; NaHCO3 5; CaCl2 1.2; HEPES 10; glucose, 10; pH 7.4. Protein content was measured according to Bradford M M, 1976 using bovine serum albumin as a standard.
Synaptosomes (about 70 μg protein) were incubated at 37° C. for 15 min in 2.5 mL of 0.05 μM [^3H]-D-aspartate ([^3H]-D-Asp; Perkin Elmer Italia, Monza, Milano, Italy). Then, the suspension was diluted to 122.5 mL with physiological medium maintained at 37° C. and 5 mL aliquots of the synaptosomal suspension were layered on microporous filters placed at the bottom of a set of 24 parallel 25 mL superfusion chambers maintained at 37° C. (Superfusion system, Ugo Basile, Comerio, Varese, Italy). Superfusion was then started with physiological medium at a rate of 0.5 mL/min, and was continued for 46 min. Starting at t=37 min, nine consecutive 1-min filtrate samples were collected. NMDA (10 μM) and glycine (1 μM) were introduced at the end of the first sample collected and maintained until the end of the experiment.
The radioactivity contained in each filtrate sample was measured by scintillographic methods, using a Ultima Gold scintillation fluid (Perkin-Elmer Milan, Italy). Each whole 0.5 mL sample was counted for radioactivity by adding 3 mL of scintillation fluid.
Tritium content measured in each sample was expressed as fractional percent (i.e. percent content of each sample with respect to total [^3H] content at the onset of the respective collection period). Drug effects were evaluated by calculating the ratio between the effluxes in the seventh fraction collected (in which the maximum effect of NMDA was reached) and that of the first fraction (basal release, prior to application of NMDA+glycine). This ratio was compared to the same seventh- and first-fraction ratio obtained under control conditions.
The possible effects of racemic and non-racemic dimiracetam mixtures on NMDA plus glycine-induced neurotransmitter release from rat spinal cord synaptosomes were assessed.

[4] = test system: NMDA+glycine-induced [3H]-D-aspartate release in rat spinal cord synaptosomes; assay: In vitro inhibition of pre-loaded [3H]-D-aspartate release induced by NMDA+glycine in rat spinal cord synaptosomes (Example 5); format: biochemical; conditions: tested at 10 nM
Method: These experiments were performed following the previously published methodology (Fariello et al. Neuropharmacology. 2014, (81), 85-94) and the results are shown in FIG. 5.

[5] = test system: rats with oxaliplatin-induced mechanical allodynia; assay: Von Frey test in oxaliplatin model; format: in vivo, rat; conditions: oxaliplatin 2.4 mg/kg i.p.
Method: (§1) After repeated oral administration of either racemic dimiracetam or the preferred inventive composition with an enantiomeric excess of (R)-dimiracetam of 50%, oxaliplatin-induced mechanical hyperalgesia was measured. Pain threshold was assessed by a Randall & Selitto analgesymeter (Leighton et al. Br. J. Pharmacol. 93:553-560, 1988) before the morning administration. In the morning of day 28, also mechanical allodynia (Sakurai et al. Pain 147:165-74, 2009) and cold sensitivity were assessed, using the von Frey and cold plate tests (Di Cesare Mannelli et al. Exp Neurol 261:22-33, 2014), respectively. […] Development of tolerance was not observed.
The animals were placed in 20 cm×20 cm Plexiglas boxes equipped with a metallic mesh floor, 20 cm above the bench. Animals were allowed to habituate themselves to their environment for 15 min before the test. An electronic Von Frey hair unit (Ugo Basile, Varese, Italy) was used: the withdrawal threshold was evaluated by applying forces ranging from 0 to 50 g with a 0.2 g accuracy. […] The paw sensitivity threshold was defined as the minimum force required to elicit a robust and immediate withdrawal reflex of the paw. Voluntary movements associated with locomotion were not considered as a withdrawal response. Stimuli were applied to each posterior paw at 5 s intervals. Measurements were repeated 5 times and the final value was obtained by averaging the 5 measurements (Sakurai et al. Pain 147:165-74, 2009).

[6] = test system: NMDA-plus-glycine-triggered [3H]-D-aspartate release in synaptosomal preparations of the spinal cord; conditions: spinal cord synaptosomes; read-out: IC50 for inhibiting NMDA-plus-glycine-triggered [3H]-D-aspartate release; cited from earlier work
[7] = test system: NMDA-plus-glycine-triggered release of [3H]-D-aspartate in synaptosomal preparations of the hippocampus; conditions: hippocampus synaptosomes; read-out: IC50 for inhibiting NMDA-plus-glycine-triggered release of [3H]-D-aspartate; cited from earlier work
[8] = test system: rats with oxaliplatin-induced mechanical hyperalgesia; assay: Paw pressure test (Randall & Selitto) in oxaliplatin model; format: in vivo, rat; conditions: oxaliplatin 2.4 mg/kg i.p.
Method: Paw mechanical sensitivity was determined using a Randall & Selitto apparatus (Randall and Selitto, 1957) exerting a force that increases at constant rate (32 g/s). The stimulus causing paw withdrawal was evaluated before and at different times after treatment. Results represent the mean of mechanical thresholds for paw withdrawal expressed as grams. To avoid possible damage to the rat paw the maximum applied force was set at 240 g. In the single administration protocol, paw pressure tests were performed before (pre-dose) and at regular intervals after treatment.
Peripheral sensory neuropathy was induced in adult rats, by administration of oxaliplatin (Tocris) at 2.4 mg/kg i.p. in saline once daily for 5 consecutive days every week for three weeks (cumulative dose 36 mg/kg) according to Cavaletti et al., 2001. Starting from day 21 after the first oxaliplatin administration, the effect of repeated oral administration of racemic dimiracetam or the preferred inventive composition with an enantiomeric excess of (R)-dimiracetam of 50% corresponding to a 3:1 (R):(S) ratio of the enantiomers on oxaliplatin-induced mechanical hyperalgesia was assessed.
After repeated oral administration of either racemic dimiracetam or the preferred inventive composition with an enantiomeric excess of (R)-dimiracetam of 50%, oxaliplatin-induced mechanical hyperalgesia was measured. Pain threshold was assessed by a Randall & Selitto analgesymeter before the morning administration. […] Development of tolerance was not observed.
as §1
Paw mechanical sensitivity was determined using a Randall & Selitto apparatus exerting a force that increases at constant rate (32 g/s). The stimulus at which rats withdrew the paw was evaluated before and at different times after treatment. Results represent the mean of mechanical thresholds expressed as grams. To avoid any possible damage to the animal paw the maximum applied force was fixed at 240 g (Leighton et al. Br. J. Pharmacol. 93:553-560, 1988).

[9] = test system: rats with oxaliplatin-induced cold sensitivity; assay: Cold plate test in oxaliplatin model; format: in vivo, rat; conditions: oxaliplatin 2.4 mg/kg i.p.
Method: as §1
The animals were placed in a stainless box (12 cm×20 cm×10 cm) with a cold plate as floor. The temperature of the cold plate was kept constant at 4° C.±1° C. Pain-related behaviors (i.e. lifting and licking of the hind paw) were observed and the time (s) of the first sign was recorded. The cut-off time of the latency of paw lifting or licking was set at 60 s (Di Cesare Mannelli et al. Exp Neurol 261:22-33, 2014).

rat plasma concentration-time profiles after oral administration [1]: identical
interconversion of enantiomers in vivo [1]: do not to interconvert in vivo
IC50 [3]: 418 nM
SMILES: O=C1CN2C(=O)CC[C@H]2N1 [(S)-dimiracetam, (S)-3,6,7,7a-tetrahydro-1H-pyrrolo[1,5-a]imidazole-2,5-dione]
efficacy response after a single oral dose [2]: smaller response than the corresponding dose of the (R)-enantiomer

IC50 [3]: 14.6 nM and 15 nM
SMILES: O=C1CN2C(=O)CCC2N1 (racemic) [racemic dimiracetam, (RS)-3,6,7,7a-tetrahydro-1H-pyrrolo[1,5-a]imidazole-2,5-dione]
% inhibition (mean) [4]: 35.4%
efficacy response after a single oral dose [2]: superior response compared to either (R)- or (S)-dimiracetam alone
Von Frey paw withdrawal, Day 28 ([5]; 15 mg/kg b.i.d.): 16.0 ± 1.5 g
Von Frey paw withdrawal, Pre-test ([5]; 15 mg/kg b.i.d.): 21.4 ± 1.0 g
Von Frey paw withdrawal, Day 28 ([5]; 50 mg/kg b.i.d.): 18.5 ± 2.3 g
Von Frey paw withdrawal, Pre-test ([5]; 50 mg/kg b.i.d.): 21.4 ± 0.5 g
IC50 [6]: ~20 nM
IC50 [7]: ~3000 nM
Percent inhibition of NMDA + glycine-induced glutamate release from rat spinal synaptosomes ([3]; 0.1 nM): 9 ± 13%
Percent inhibition of NMDA + glycine-induced glutamate release from rat spinal synaptosomes ([3]; 1 nM): 29 ± 3%
Percent inhibition of NMDA + glycine-induced glutamate release from rat spinal synaptosomes ([3]; 10 nM): 35 ± 4%
inhibition of NMDA plus glycine-evoked [3H]-D-aspartic acid release ([3]; at a concentration of 10 nM): 36%
Randall & Selitto, paw pressure, Day 28 ([8]; 15 mg/kg b.i.d.): 48.7 ± 2.5 g
Randall & Selitto, paw pressure, Pre-test ([8]; 15 mg/kg b.i.d.): 68.1 ± 1.2 g
Randall & Selitto, paw pressure, Day 28 ([8]; 50 mg/kg b.i.d.): 55.2 ± 1.0 g
Randall & Selitto, paw pressure, Pre-test ([8]; 50 mg/kg b.i.d.): 67.1 ± 0.8 g
Cold plate, licking latency, Day 28 ([9]; 15 mg/kg b.i.d.): 14.8 ± 1.5 s
Cold plate, licking latency, Pre-test ([9]; 15 mg/kg b.i.d.): 21.5 ± 1.0 s
Cold plate, licking latency, Day 28 ([9]; 50 mg/kg b.i.d.): 15.4 ± 1.0 s
Cold plate, licking latency, Pre-test ([9]; 50 mg/kg b.i.d.): 22.0 ± 0.8 s

rat plasma concentration-time profiles after oral administration [1]: identical
interconversion of enantiomers in vivo [1]: do not to interconvert in vivo
IC50 [3]: 123 nM
SMILES: O=C1CN2C(=O)CC[C@@H]2N1 [(R)-dimiracetam, (R)-3,6,7,7a-tetrahydro-1H-pyrrolo[1,5-a]imidazole-2,5-dione]
efficacy response after a single oral dose [2]: partial efficacy response
